Assay results: a melting point compilation (Tetko et al.)

SMILES	melting point [°C]
O=C(Nc1ccccc1)Nc1ccccc1	242
CCCCNC	-75
O=C(Nc1nnc(-c2ccc(Cl)cc2)o1)c1ccc(F)cc1	282 to 284
CCC1(CC)C(=O)CCNC1=O	102
COC1=C(OC)C(C(COS(=O)(=O)c2ccc(C)cc2)OS(=O)(=O)c2ccc(C)cc2)OC1=O (stereo unspecified)	144 to 146
O=[N+]([O-])c1ccc(S(=O)(=O)Cl)cc1	78
CC(C)(C)OC(=O)N1CCCC[C@@H]1C(=O)O	118 to 122
COc1ccc(Cl)c(OC)c1C(N)=O	156 to 158
Cc1ncc(CO)c(C(=O)O)c1O	248
CC(=NOCc1cccc(C(=O)O)c1)c1ccc(Cl)c(Cl)c1	175 to 178
O=C1c2ccccc2C(=O)C2CC3=C(CC=CC3)CC12 (stereo unspecified)	155
CC(C)(C)OC(=O)N[C@@H]1CC[C@H](C(=O)O)C1	112
O=C(O)C=C1OC(=O)c2ccccc21	287 to 290
COc1ccc(C=C(C#N)C(N)=O)cc1	321
S=C1SCN(Cc2ccccc2)CN1Cc1ccccc1	102
Cc1ncccc1N	117
Cc1cnc(C(=O)O)cn1	166
O=Cc1ccc(-n2ccnc2)cc1	142 to 145
OCCNC(=S)C(=S)NCCO	93.3
Cc1ccc(C(=O)O)cc1I	208
CC1C/C(=C\c2ccc([N+](=O)[O-])cc2)C(=O)/C(=C/c2ccc([N+](=O)[O-])cc2)C1 (stereo unspecified)	192 to 193
CCC(C)(CC)c1cc(NC(=O)c2c(OC)cccc2OC)on1	178
CO[C@]1(CBr)O[C@H](COC(=O)c2ccc(C)cc2)[C@@H](OC(=O)c2ccc(C)cc2)[C@@H]1OC(=O)c1ccc(C)cc1	148 to 149
COc1ccc(-c2cc3c(C#N)c(N)[nH]n3c(=O)c2C#N)cc1	297
CCOc1cc(C(C)(C)C)ccc1C1COC(c2c(F)cccc2F)=N1 (stereo unspecified)	102
O=C(O)Cc1c(F)cccc1F	101

SMILES	melting point [°C]
Cc1ccc(NN=C2C(=O)NC(=S)NC2=O)cc1	305
CC(C=CC=C(C)C=CC12OC1(C)CC(O)CC2(C)C)=CC=CC=C(C)C=CC=C(C)C=CC12OC1(C)CC(O)CC2(C)C (stereo unspecified)	208
Cc1c(Nc2ncccc2C(=O)O)cccc1C(F)(F)F	226
CC(C)(C)c1cc(C(=Nc2ccccc2)Nc2ccccc2)cc(C(C)(C)C)c1O	130 to 131
Cn1ccc2c1CCCC2=O	85
CCCCCCCCCCCCCCCCOP(=O)(O)OCCCCCCCCCCCCCCCC	74.5
COc1cc(O)c2c(=O)c(O)c(-c3ccc(OCc4ccccc4)c(O)c3)oc2c1	208
C=CCC1(CC(=C)Br)C(=O)NC(=O)NC1=O	168
C1CCSCC1	19
O=C=Nc1cccc(C(F)(F)F)c1	-26
IC=CI	-14
FC(F)(F)C(Cl)(Cl)C(F)(F)Cl	-4.3
O=C1c2ccccc2C(=O)C1c1cc(Cl)c([N+](=O)[O-])cc1[N+](=O)[O-]	185
NC(=S)c1ccccc1	116
CCCCCCCCCCCCCCCCCCOCCOCCOCCOCCOCCOCCOCCOCCOCCOCCOCCOCCOCCOCCOCCOCCOCCOCCOCCOCCO	44 to 46
C#CC(C)(C)NC(=O)c1cc(Cl)cc(Cl)c1	156
Cc1oc(-c2ccc(Cl)cc2)cc1C(=O)O	231 to 232
CCc1cc2cc(OC)c(OC)cc2c(Cc2ccccc2)n1	78
COc1ccc(N2C(=O)C3ON=C(C(=O)c4ccccc4)C3C2=O)cc1 (stereo unspecified)	166
Nc1cccnc1Oc1ccc(F)cc1F	96 to 97
O=C(CCCl)c1ccc(Br)cc1	60
Oc1ccccc1/C=N/n1c(-c2ccccc2)n[nH]c1=S	209 to 210
O=C1OC(/C=C/c2ccc([N+](=O)[O-])cc2)Cc2ccccc21 (stereo unspecified)	180 to 182
CN(C)c1ccc(/C=C(/C#N)c2nc(-c3ccc(Cl)cc3)cs2)cc1	133
CCC(C)C1(CC)C(=O)NC(=O)NC1=O (stereo unspecified)	167
N#CCc1ccccc1CC#N	59

SMILES	melting point [°C]
Cc1nc(-c2ccc(C(F)(F)F)cc2)sc1C(=O)CBr	82 to 84
COc1ccc(CC(=O)O)cc1C	93 to 95
O=C1c2cccc3cccc(c23)C(=O)N1O	245
CC(Oc1c(Cl)cccc1Cl)C1=NCCN1 (stereo unspecified)	126
CCCCCCCC(N)=O	108
COCC(C)c1c(O)c2c(c(OC)c1OC)C1(C)CCCC(C)(C)C1C(=O)C2=O (stereo unspecified)	90 to 92
O=c1[nH]cnc2c1ncn2C1CC(O)C(CO)O1 (stereo unspecified)	250
C#CC(O)c1ccccc1 (stereo unspecified)	28
CCC1(O)CCC2(C)C(CCC3C4CCC(=O)C4(C)CCC32)C1 (stereo unspecified)	113 to 116
COc1cc(CNC(=O)c2[nH]c3ccccc3c2CCO)cc(OC)c1	185 to 187
Nc1c[nH]c(=O)[nH]c1=O	300
CC(C#N)CCC#N (stereo unspecified)	-45
Cc1nc(N)ccc1[N+](=O)[O-]	185 to 189
COc1ccc(C=Cc2ccc(OC)cc2)cc1	214
CC(=O)OCc1ccc(C=O)o1	52 to 56
COc1ccc([N+](=O)[O-])cc1Cl	94 to 96
Cc1cc(CCN2CCN(c3cccc(Cl)c3)CC2)n[nH]1	106
COc1nc(C)nc(NC(=O)NS(=O)(=O)c2ccccc2OCCCl)n1	189
O=P1(NC2CCCCC2)Oc2ccccc2-c2ccccc2O1	160
N#CC1=C(N)Oc2c(Br)cc(Br)cc2C1C(C#N)C#N (stereo unspecified)	300
Cc1[nH]c2ccccc2c1C#N	212 to 213
Sc1nc(-c2ccccc2)c(-c2ccccc2)o1	253
CCCC1C2C(=O)N(c3ccccc3)C(=O)C2ON1c1ccccc1 (stereo unspecified)	107 to 108
CCC(N)Cc1c[nH]c2ccccc12 (stereo unspecified)	97
CC(CC(C(N)=O)(c1ccccc1)c1ccccc1)N(C)C (stereo unspecified)	137
CC(C)(C)NSc1nc2ccccc2s1	108

SMILES	melting point [°C]
COc1nsnc1NS(=O)(=O)c1ccc(N)cc1	150
NNc1ccc(Cl)cc1[N+](=O)[O-]	134
CC(C)CC(C)(O)C#CC(C)(O)CC(C)C (stereo unspecified)	42 to 44
Brc1ccc(Oc2c(Br)cc(Br)cc2Br)cc1	134 to 136
C=C1CC2C3C=C(C)C4=CC(=O)CCC4(C)C3CCC2(C)C1(OC(C)=O)C(C)=O (stereo unspecified)	224
FC(F)=C(F)Cl	-109
CCCC(O)CCC=CC=CC#CC#CC=CCO (stereo unspecified)	87
NC(=O)c1cnccn1	189
O=C(Cl)c1cccc2c1OCCO2	98 to 99
NC(=O)c1ccc(F)cc1Cl	152 to 154
CC(=O)C1(O)CCC2(C)C(CCC3C4CCC(=O)C4(C)CCC32)C1 (stereo unspecified)	211 to 212
CCOC(=O)C(=O)CC(=O)c1cccs1	38 to 40
O=Cc1cc([N+](=O)[O-])ccc1N1CCOCC1	115
O=C1c2ccccc2C1Cl (stereo unspecified)	67
CC(=O)Oc1ccccc1C(=O)OC(=O)c1ccccc1OC(C)=O	83
COc1ccc(CC(=O)O)c(OC)c1	110
CCCCCCF	-103
Cc1ccc(Cl)cc1O	73
c1ccc(C2OC2c2ccccc2)cc1 (stereo unspecified)	67 to 70
O=C(Cl)c1cc2cc([N+](=O)[O-])ccc2s1	157 to 158
COC(=O)C=Cc1ccccc1	36
CC(=O)NCCCCC(N)C(=O)O (stereo unspecified)	250
O=Cc1cc([N+](=O)[O-])cc(Br)c1O	149
O=S1CCC1	31.5
Cc1cc(O)c2c(c1)C(=O)c1cc(O)cc(O)c1C2=O	257
CSc1c(C#N)c(N)nc2c(/N=N/c3cccc(C(F)(F)F)c3)c(N)nn12	293

SMILES	melting point [°C]
COc1cc(CCNC(=O)Cc2ccc(OC)c(OCc3ccccc3)c2)ccc1OCc1ccccc1	140
N#CCc1nc(-c2ccccc2)cs1	59 to 60
O=C1NC(=O)C2(c3ccc(Cl)cc3)c3ccccc3CCN12 (stereo unspecified)	215 to 216
Cc1nc2sc3c(c2c(=O)n1NC(=O)c1ccc(Cl)cc1)CCCC3	234 to 235
Clc1ccc(-c2csc(N3N=C(c4cnccn4)CC3c3ccc4c(c3)OCO4)n2)cc1 (stereo unspecified)	187
ClCc1ccc(Cl)nc1	40
Cc1ccc(S(=O)(=O)Oc2c(C(=O)c3ccc(Cl)cc3Cl)c(C)nn2C)cc1	118
Nc1nc[nH]c(=O)n1	300
Cn1nc(C(=O)Cl)c2ccccc21	126
CSc1nc(C=O)ccc1C#N	140
Brc1ccccc1-c1nnn[nH]1	182 to 184
OCC[C@@H](O)c1ccccc1	62 to 66
O=C(CCl)OCCOC(=O)CCl	45.5
Cc1cc(C)c(C)c(I)c1C	79
N#CC(=Cc1cccc(O)c1)C(=O)O	230 to 233
Cc1nnc(SCc2ccccc2)n1N=Cc1ccccc1Cl	121 to 123
COc1ccc2c(c1O)-c1cccc3c1C(C2)N(C)CC3 (stereo unspecified)	124
O=c1[nH]c(=S)[nH]c2ccccc12	320 to 322
O=[N+]([O-])c1ccc(/C=C\c2ccccc2C=NNc2ccccc2)c([N+](=O)[O-])c1	193
O=C1/C(=N/Nc2cccnc2)C(C(F)(F)F)=NN1c1ccccc1	161
Nc1c(C=O)c(=O)oc2ccccc12	267 to 268
COc1cc(OC)nc(NC(=O)NS(=O)(=O)c2ncccc2C(F)(F)F)n1	180
